Experimental data taken from patent US20250127908A1, “HETEROBIFUNCTIONAL CONDITIONAL INHIBITORS” (Kolm Therapeutics Inc., priority 2023, published 2025).

Legend:
VCaP cells = assay: VCaP growth inhibition assay (CTG); format: cell-based; conditions: Homo sapiens, 216 h, 30 pM R1881, 9-day treatment, CTG luminescence
Method: Example B-2: VCaP Growth Inhibition Assay
VCaP cells (ATCC Cat #CRL-2876) are plated at 1×10^4 cells per well of a white plastic 96-well cluster plate (Thermo Scientific Nunc Cat #165306) in 100 uL phenol red-free DMLEM (Gibco Cat #21063-029) media with […] (Omega Scientific Cat #FB-04). Cluster plates are returned to the incubator (37*C/5% CO2) for 72 hours prior to treatment. Just prior to treatment, 100 uL of phenol red-free DMEM/5% CSS and 60 pM Ri881 (Sigma Cat #R0908-10 mg) was added to each well of the cluster plates (Final R1881 concentration=30 pM). Compounds (200×) were added to each well in a volume of 1 uL, with serial dilutions (1:5) from 20 uM to 2 pM (final concentrations in well are 100 nM to 10 fMV). Cluster plates are returned to the incubator for 9 days.
After the 9-day treatment period, media was removed from the cluster plates by inversion and 100 uL room temperature CTG reagent (Promega Cat #G7573) is added to each well. The cluster plates are placed on a shaker and incubated at room temperature for 20 minutes. Following this shaking/incubation, cluster plates are read on a luminometer (BMG ClarioStar). IC50 values are obtained by graphing the RLU data vs. compound concentration with nonlinear regression 4-parameter logistic curves (GraphPad Prism).

[1] = test system: AR and CBP or p300 ternary complex; assay: Ternary complex formation assay (sandwich ELISA on lysates of treated VCaP cells: AR capture, CBP or p300 detection); format: cell-based; conditions: VCaP cells treated with bifunctional for 1.5 hours; lysate; anti-AR capture, CBP or p300 antibody detection
Method: Example B-1: Ternary Complex Formation Assay
Preparation of Mouse Anti-AR Antibody Coated 96 Well Plates
Black MaxiSorp plates: coat with 50 μL of mouse 1/50 diluted AR antibody (Monoclonal Antibody (AR 441 from Thermo Fisher); diluted in phosphate buffered saline (PBS). Spin the liquid to the bottom of the wells, if necessary. Incubate overnight at 4° C. Next day, wash 3 times with 200 μL of TBST. Block with 200 μL of blocking buffer (5% BSA in TBST) at room temperature for 2 hours (BSA: A4503 or A2153 from Sigma). Wash plates 3 times with TBST. Plates are ready for lysates
Preparation of Dimerizer Treated Lysates
Culture cells in 96 wells at 50K VCaP cells/well for at least 3 days. Plate in 5% Omega charcoal stripped FBS in total volume of 200 uL. Treat with bifunctional for 1.5 hours by adding 1 μL of 200× stock in DMSO. Aspirate media/compound. Add and pipet-to-mix 70 μL of 1× AlphaLisa Lysis Buffer to each well (Perkin Elmer, AlphaLISA SureFire Ultra, diluted in water). Pipet up and down when adding lysis buffer to disrupt cells. Let lysis proceed for 30 min at 4° C.
Incubate for 1 hour at room temperature. Flick out the lysates. Wash 3 times with TBST. Add 75 uL of rabbit CBP or p300 antibody to each well (diluted 1:5000 in blocking buffer (5% BSA in TBST). CBP antibody: (D6C5) Rabbit mAb #7389; p300 antibody: (D8Z4E) Rabbit mAb #86377. Incubate overnight at 4° C. Wash 3 times with 300 uL TBST, each time on shaker for 5-10 min. Prepare goat anti-rabbit antibody conjugated to HRP (1/100K dilution in blocking buffer) Invitrogen Catalog number: 32260. Add 75 uL of HRP-conjugated goat anti-rabbit antibody. Incubate at room temperature for 1 hour. Flick out the HRP-antibody mixture. Wash 7-8 times with TBST, each time on shaker for 10 min. Later washes try to overflow the wells so that no residual HRP remains bound to the sides of the well. Prepare and add 75 uL/well of QuantaRed Enhance Chemifluorescent HRP Substrate solution. Immediately read fluorescence on BMG ClarioStar (ex: 570/em 585), and repeat the read in 5 minutes and 15 minutes.

Row | SMILES | IC50 (VCaP cells) | Average Ternary Complex [1]
1 | CC(=O)N1CCc2c(c(N3CCCc4cc(-c5cnn(C)c5)c(C(F)F)cc43)nn2C2CCN(CCCOc3ccc(-c4ccc(N5C(=S)N(c6ccc(C#N)c(C(F)(F)F)c6)C(=O)C5(C)C)cc4)cc3)CC2)C1 [Compound 1, 4-[3-[4-[4-[3-[4-[5-acetyl-3-[7-(difluoromethyl)-6-(1-methylpyrazol-4-yl)-3,4-dihydro-2H-quinolin-1-yl]-6,7-dihydro-4H-pyrazolo[4,3-c]pyridin-1-yl]-1-piperidyl]propoxy]phenyl]phenyl]-4,4-dimethyl-5-oxo-2-thioxo-imidazolidin-1-yl]-2-(trifluoromethyl)benzonitrile] | > 100 nM | B (B is >1 nM and ≤10 nM)
2 | CC(=O)N1CCc2c(c(N3CCCc4cc(-c5cnn(C)c5)c(C(F)F)cc43)nn2C2CCN(CCOCCOc3ccc(C4CCN(c5ccc(C#N)c(C(F)(F)F)c5)CC4)cc3)CC2)C1 [Compound 2, 4-[4-[4-[2-[2-[4-[5-acetyl-3-[7-(difluoromethyl)-6-(1-methylpyrazol-4-yl)-3,4-dihydro-2H-quinolin-1-yl]-6,7-dihydro-4H-pyrazolo[4,3-c]pyridin-1-yl]-1-piperidyl]ethoxy]ethoxy]phenyl]-1-piperidyl]-2-(trifluoromethyl)benzonitrile] | – | D (D is active and >100 nM)
3 | CC(=O)N1CCc2c(c(N3CCCc4cc(-c5cnn(C)c5)c(C(F)F)cc43)nn2C2CCN(CCCCOc3ccc(C4CCN(c5ccc(C#N)c(C(F)(F)F)c5)CC4)cc3)CC2)C1 [Compound 3, 4-[4-[4-[4-[4-[5-acetyl-3-[7-(difluoromethyl)-6-(1-methylpyrazol-4-yl)-3,4-dihydro-2H-quinolin-1-yl]-6,7-dihydro-4H-pyrazolo[4,3-c]pyridin-1-yl]-1-piperidyl]butoxy]phenyl]-1-piperidyl]-2-(trifluoromethyl)benzonitrile] | – | D (D is active and >100 nM)
4 | CC(=O)N1CCc2c(c(N3CCCc4cc(-c5cnn(C)c5)c(C(F)F)cc43)nn2C2CCN(CCCOc3ccc(C4CCN(c5ccc(C#N)c(C(F)(F)F)c5)CC4)cc3)CC2)C1 [Compound 4, 4-[4-[4-[3-[4-[5-acetyl-3-[7-(difluoromethyl)-6-(1-methylpyrazol-4-yl)-3,4-dihydro-2H-quinolin-1-yl]-6,7-dihydro-4H-pyrazolo[4,3-c]pyridin-1-yl]-1-piperidyl]propoxy]phenyl]-1-piperidyl]-2-(trifluoromethyl)benzonitrile] | > 100 nM | D (D is active and >100 nM)
5 | CNC(=O)N1CCc2c(c(N3CCCc4cc(-c5cnn(C)c5)c(C(F)F)cc43)nn2C2CCN(C(=O)CC3CCN(c4ccc([C@H]5c6ccc(O)cc6CC[C@H]5c5ccccc5)cc4)CC3)CC2)C1 [Compound 6] | 1 to 100 nM | –
6 | CNC(=O)N1CCc2c(c(N3CCCc4cc(-c5cnn(C)c5)c(C(F)F)cc43)nn2C2CCN(C(=O)CCC3CCN(c4ccc([C@H]5c6ccc(O)cc6CC[C@H]5c5ccccc5)cc4)CC3)CC2)C1 [Compound 7] | 1 to 100 nM | –
7 | CNC(=O)N1CCc2c(c(N3CCCc4cc(-c5cnn(C)c5)c(C(F)F)cc43)nn2C2CCN(C(=O)COCC3CCN(c4ccc([C@H]5c6ccc(O)cc6CC[C@H]5c5ccccc5)cc4)CC3)CC2)C1 [Compound 8] | 1 to 100 nM | –
8 | CNC(=O)N1CCc2c(c(N3CCCc4cc(-c5cnn(C)c5)c(C(F)F)cc43)nn2C2CCN(C(=O)COCCCC3CCN(c4ccc([C@H]5c6ccc(O)cc6CC[C@H]5c5ccccc5)cc4)CC3)CC2)C1 [Compound 9] | 1 to 100 nM | –
9 | CNC(=O)N1CCc2c(c(N3CCCc4cc(-c5cnn(C)c5)c(C(F)F)cc43)nn2C2CCN(C(=O)COCCOCCN3CCN(CC4CCN(c5ccc([C@H]6c7ccc(O)cc7CC[C@H]6c6ccccc6)cc5)CC4)CC3)CC2)C1 [Compound 11] | > 100 nM | –
10 | CC(=O)N1CCc2c(c(N3CCCc4cc(C#N)ccc43)nn2C2CCN(C(=O)C3CCN(c4ccc(C5CCN(c6ccc(C#N)c(C(F)(F)F)c6)CC5)cc4)CC3)CC2)C1 [Compound 12, 1-[5-acetyl-1-[1-[1-[4-[1-[4-cyano-3-(trifluoromethyl)phenyl]-4-piperidyl]phenyl]piperidine-4-carbonyl]-4-piperidyl]-6,7-dihydro-4H-pyrazolo[4,3-c]pyridin-3-yl]-3,4-dihydro-2H-quinoline-6-carbonitrile] | > 100 nM | D (D is active and >100 nM)
11 | CC(=O)N1CCc2c(c(N3CCCc4cc(C#N)ccc43)nn2C2CCN(CC3CCN(c4ccc(C5CCN(c6ccc(C#N)c(C(F)(F)F)c6)CC5)cc4)CC3)CC2)C1 [Compound 13, 1-[5-acetyl-1-[1-[[1-[4-[1-[4-cyano-3-(trifluoromethyl)phenyl]-4-piperidyl]phenyl]-4-piperidyl]methyl]-4-piperidyl]-6,7-dihydro-4H-pyrazolo[4,3-c]pyridin-3-yl]-3,4-dihydro-2H-quinoline-6-carbonitrile] | > 100 nM | D (D is active and >100 nM)
12 | CC(=O)N1CCc2c(c(-c3cccc4cc(-c5ccc(CCC6CCN(c7ccc(C8CCN(c9ccc(C#N)c(C(F)(F)F)c9)CC8)cc7)CC6)nc5)ncc34)nn2C2CCOCC2)C1 [Compound 14, 4-[4-[4-[4-[2-[5-[8-(5-acetyl-1-tetrahydropyran-4-yl-6,7-dihydro-4H-pyrazolo[4,3-c]pyridin-3-yl)-3-isoquinolyl]-2-pyridyl]ethyl]-1-piperidyl]phenyl]-1-piperidyl]-2-(trifluoromethyl)benzonitrile] | > 100 nM | D (D is active and >100 nM)
13 | CC(=O)N1CCc2c(c(-c3cccc4cc(-c5cnn(CCOC6CCN(c7ccc(C8CCN(c9ccc(C#N)c(C(F)(F)F)c9)CC8)cc7)CC6)c5)ncc34)nn2C2CCOCC2)C1 [Compound 15, 4-[4-[4-[4-[2-[4-[8-(5-acetyl-1-tetrahydropyran-4-yl-6,7-dihydro-4H-pyrazolo[4,3-c]pyridin-3-yl)-3-isoquinolyl]pyrazol-1-yl]ethoxy]-1-piperidyl]phenyl]-1-piperidyl]-2-(trifluoromethyl)benzonitrile] | 1 to 100 nM | D (D is active and >100 nM)
14 | CC(=O)N1CCc2c(c(N3CCCc4cc(-c5cnn(C)c5)c(C(F)F)cc43)nn2C2CCN(C3CCC(Oc4ccc(-c5ccc(N6C(=S)N(c7ccc(C#N)c(C(F)(F)F)c7)C(=O)C6(C)C)cc5)cc4)C3)CC2)C1 (centres unmarked) [Compound 18] | – | B (B is >1 nM and ≤10 nM)
15 | CC(=O)N1CCc2c(c(N3CCCc4cc(-c5cnn(C)c5)c(C(F)F)cc43)nn2C2CCN(C3CC(Oc4ccc(-c5ccc(N6C(=S)N(c7ccc(C#N)c(C(F)(F)F)c7)C(=O)C6(C)C)cc5)cc4)C3)CC2)C1 (centres unmarked) [Compound 19] | – | B (B is >1 nM and ≤10 nM)
16 | CC(=O)N1CCc2c(c(N3CCCc4cc(-c5cnn(C)c5)c(C(F)F)cc43)nn2C2CCN(CCOC3CCN(c4ccc(N5C(=S)N(c6ccc(C#N)c(C(F)(F)F)c6)C(=O)C5(C)C)cc4)CC3)CC2)C1 [Compound 20] | – | B (B is >1 nM and ≤10 nM)
17 | CC(=O)N1CCc2c(c(N3CCCc4cc(-c5cnn(C)c5)c(C(F)F)cc43)nn2C2CCN(C(=O)COC3CCN(c4ccc(N5C(=S)N(c6ccc(C#N)c(C(F)(F)F)c6)C(=O)C5(C)C)cc4)CC3)CC2)C1 [Compound 21] | – | B (B is >1 nM and ≤10 nM)
